Legend:
[1] = tested on: Ser40 phosphorylation of Th in HEK cells transfected with Th; experiment: Th Ser40 phosphorylation in HEK cells transfected with Th (western blot); assay type: cell-based; conditions: HEK-293 transfected with Th, low concentrations (1 μM)
Procedure: FIG. 3. HEK cells are a suitable model to study GUCY2C-induced Ser40 phosphorylation. (A) RT-qPCR data from intact HEK extracts. Input material was 10 ng of total RNA. Cp corresponds to the cycle number in which the expression starts to be considered positive. (−) represents the water control, which is negative in every case. (B) HEK cultures were transfected with Th and treated with a cGMP analogue 48 hours post-plating. Changes in Ser40 phosphorylation were studied. The graph represents the statistical analysis (n=6; Mean±SEM). Unpaired Student's t-test (p-value: ****<0.0001). Hereon, ‘Fold Change’ corresponds to the ratio P-Ser40/Total Th.
FIG. 7. PDE2a is an important effector regulating Ser40 phosphorylation in MN9D cells. BAY-60-7550 dose-curve and representative examples in MN9D (n=9, red) and HEK cells (n=4, blue) (Mean±SEM). Cells were treated with various concentrations of BAY 60-7750 and analyzed for Th phosphorylation on Ser40 , total Th and actin.
HEK cells were maintained in 100-mm Petri dishes and grown in DMEM medium supplemented with L-glutamine, penicillin-streptomycin (Pen&Strep) and 10% heat-inactivated fetal bovine serum (HIFBS). Growing conditions were 37° C. and 5% CO2. For every-other-day passages, HEK cultures were split at a 1:3 dilution. From Friday to Monday, the split proportion was doubled for all cell lines. For passaging, cultures were rinsed with PBS and incubated with 1 mL of trypsin during 5 minutes. Cells were resuspended in growth medium and finally split to the proper dilution. The experiments were performed in 12-well plates. For immunocytochemistry analysis, sterile 18-mm coverslips were added prior to the plating. 500 !μL of cell resuspension was seeded in each well. If experiments were to be performed 48 hours after the plate preparation, 1:5 was the seeding ratio for HEK cells. When the experiments took place 96 hours post-plating, 1:7 was the working dilution for HEK cells. Unless otherwise stated, HEK cultures were processed 96 hours post-plating.
HEK cells were transfected using the calcium-phosphate method. […]

GUCY2C R792S mutant = biological target: T1, GUCY2C R792S mutant (Homo sapiens, UniProt P25092, R792S); experiment: Th Ser40 phosphorylation in HEK cells co-transfected with Th and GUCY2C R792S gain-of-function mutant versus wt; assay type: cell-based; conditions: HEK co-transfected with Th and wt or R792S GUCY2C, guanylin treatment
T1 construct: expressed in transfected cells; host or cells: HEK cells, co-transfected with Th
Procedure: FIG. 5. […] (A) HEK cultures were treated with guanylin, in the presence or absence of IBMX. […] Unpaired Student's t-test (p-values: ****<0.0001, **<0.01, *<0.05). (B) HEK cells were co-transfected with Th and either the wt GUCY2C or a gain-of-function mutant (R792S). Ser40 phosphorylation was studied following guanylin treatment (G). […] Unpaired Student's t-test (p-values: ***<0.001, **<0.01).
HEK cells were transfected using the calcium-phosphate method. 12-well plates were refreshed with 500 μL of growth medium before transfection. […] The plasmid mixture was taken into a final concentration of 250 mM CaCl2 in a total volume of 110 μL. A complementary tube was filled with 110 μL of HEPES-buffered saline 2X (HEBS 2X: 1.5 mM Na2HPO4, 50 mM HEPES pH 7.05, 280 mM NaCl). The tube with CaCl2 was pipetted drop-wise into the HEBS and mixed gently. After 60 seconds of incubation, 55 µL of the final mixture was added to each well. […]
Up to 35 μL of sample was loaded in each slot and run in the presence of tris-glycine buffer and 0.1% SDS. […] After additional washings during 1 hour, blots were exposed to an enhanced chemiluminescence solution and the signal was detected using an Odyssey imager (LI-COR). […] For graph quantifications, ‘Fold Change’ represents the ratio P-Ser40/Total Th. Statistical comparisons between pair of groups correspond to unpaired Student's t-tests, as calculated with GraphPad Prism. […]

T1 sequence (P25092 24-1073 R792S): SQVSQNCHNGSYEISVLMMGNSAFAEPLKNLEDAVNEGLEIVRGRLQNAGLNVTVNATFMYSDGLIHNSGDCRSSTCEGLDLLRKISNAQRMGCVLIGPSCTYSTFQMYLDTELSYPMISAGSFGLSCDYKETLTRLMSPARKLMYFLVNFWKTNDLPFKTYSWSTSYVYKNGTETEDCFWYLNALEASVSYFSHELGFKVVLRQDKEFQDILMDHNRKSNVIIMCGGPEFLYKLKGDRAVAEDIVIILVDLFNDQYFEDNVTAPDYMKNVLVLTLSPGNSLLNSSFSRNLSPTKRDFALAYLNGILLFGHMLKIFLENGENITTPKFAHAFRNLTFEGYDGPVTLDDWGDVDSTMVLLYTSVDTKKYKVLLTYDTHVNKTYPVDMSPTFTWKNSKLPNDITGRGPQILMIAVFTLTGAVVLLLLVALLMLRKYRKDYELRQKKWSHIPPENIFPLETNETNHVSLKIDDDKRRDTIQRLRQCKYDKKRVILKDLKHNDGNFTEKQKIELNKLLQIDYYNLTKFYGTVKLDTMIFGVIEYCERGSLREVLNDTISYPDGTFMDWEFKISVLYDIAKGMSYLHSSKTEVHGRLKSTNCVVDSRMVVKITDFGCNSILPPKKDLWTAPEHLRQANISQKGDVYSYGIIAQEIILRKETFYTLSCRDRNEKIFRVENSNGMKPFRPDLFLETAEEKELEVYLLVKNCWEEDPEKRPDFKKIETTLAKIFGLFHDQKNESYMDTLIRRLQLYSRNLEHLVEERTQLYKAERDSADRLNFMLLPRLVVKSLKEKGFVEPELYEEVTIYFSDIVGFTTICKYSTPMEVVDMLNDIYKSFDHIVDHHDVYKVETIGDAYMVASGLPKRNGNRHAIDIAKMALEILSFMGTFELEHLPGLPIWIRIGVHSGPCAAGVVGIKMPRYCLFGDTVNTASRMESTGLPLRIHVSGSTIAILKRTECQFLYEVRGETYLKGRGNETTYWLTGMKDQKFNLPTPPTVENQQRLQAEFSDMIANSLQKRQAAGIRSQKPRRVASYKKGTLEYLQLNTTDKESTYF

| Molecule | effect on Ser40 phosphorylation in HEK cells [1] | effect on Ser40 phosphorylation in HEK cells ([1]; listed as BAY 60-7750) | boost in Ser40 phosphorylation with R792S mutant compared to the wt receptor (GUCY2C R792S mutant) |
| --- | --- | --- | --- |
| COc1ccc(Cc2nn3c([C@@H](CCCc4ccccc4)[C@@H](C)O)nc(C)c3c(=O)[nH]2)cc1OC [BAY 60-7550] | hardly exhibit any effect | almost no effect |  |
| guanylin: natural agonistic ligand of GUCY2C, 15 amino acid polypeptide; commercially available rat/mouse guanylin (Chemcruz) (PNTCEICAYAACTGC) [reference compound] |  |  | 1.5 fold |
